molecular target: T1, CRTh2 receptor (Homo sapiens, UniProt Q9Y5Y4); assay: CRTh2 GTPγS antagonism binding assay; assay type: biochemical; settings: membranes from CHO.K1 cells stably overexpressing the CRTh2 receptor; [35S]-GTPγS 0.1 nM; PGD2 at 50 nM (EC80); IC50 per method; read-out: GTPγ Binding
T1 construct: expressed in transfected cells; host or cells: CHO.K1 cells (membranes)
T1 sequence (Q9Y5Y4 1-395): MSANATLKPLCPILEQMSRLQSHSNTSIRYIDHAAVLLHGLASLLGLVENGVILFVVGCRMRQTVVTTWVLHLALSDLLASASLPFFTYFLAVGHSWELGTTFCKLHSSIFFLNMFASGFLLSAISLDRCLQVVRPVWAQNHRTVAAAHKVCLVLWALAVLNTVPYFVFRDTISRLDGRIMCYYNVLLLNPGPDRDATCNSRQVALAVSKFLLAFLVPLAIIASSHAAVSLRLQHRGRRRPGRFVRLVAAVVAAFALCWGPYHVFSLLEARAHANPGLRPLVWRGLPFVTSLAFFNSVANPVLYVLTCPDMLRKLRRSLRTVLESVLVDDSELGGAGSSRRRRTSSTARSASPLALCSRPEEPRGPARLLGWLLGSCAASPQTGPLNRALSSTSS
Method: CRTh2 GTPγS antagonism bending assay
The assay is performed using membranes obtained from CHO.K1 cells stably overexpressing the CRTh2 receptor and [^35S]-GTPγS as radioligand. Assay is performed pre-incubating 4-8 µg of membranes per well with the compound to be tested for 1h, followed by incubation with PGD2 at 50 nM (EC80), 0.1 nM [^35S]-GTPγS in incubation buffer (20 mM Herpes, 10 mM MgCl2, 100 mM NaCl, 10 µM GDP, 10 µg/ml Saponine and 0.2% BSA) for 2 h at room temperature. The reaction is terminated by filtering in GF/C plates pre-treated with 20 mM HEPES, 10 mM MgCl2, 100 mM NaCl and washing 6 times with wash buffer (20 mM NaH2PO4, 20 mM Na2HPO4). After washing, plates are dried and scintillation buffer Optiphase added. The radioactivity retained in the filter is counted using a Microbeta liquid scintillation counter. Compound IC50 are determined using Excel XL-fit for calculations.

Q: Which IC50 does the source give for `CCN(Cc1cc(C(F)(F)F)ccc1-c1nn(CC(=O)O)c2ccccc12)C(=O)C1CC1` [Example 1, {3-[2-{[(Cyclopropylcarbonyl)(ethyl)amino]methyl]-4-(trifluoromethyl)phenyl]-1H-indazol-1-yl}acetic acid] here?
A: 18 nM

Q: Which IC50 does the source give for `CCN(Cc1cc(C(F)(F)F)ccc1-c1nn(CC(=O)O)c2cccc(Cl)c12)C(=O)C1CC1` [Example 2, {4-Chloro-3-[2-{[(cyccopropylcarbonyl)(ethyl)amino]methyl}-4-(trifluoromethyl)phenyl]-1H-indazol-1-yl}acetic acid] here?
A: 6 nM

Q: `CCN(Cc1cc(C(F)(F)F)ccc1-c1nn(CC(=O)O)c2ccc(F)cc12)C(=O)C1CC1` [Example 3, {3-[2-{[(Cyclopropylcarbonyl)(ethyl)amino]methyl}-4-(trifluoromethyl)phenyl]-5-fluoro-1H-indazol-1-yl}acetic acid] was tested. Which IC50 did it give?
A: 15 nM

Q: Which IC50 does the source give for `CCN(Cc1cc(F)ccc1-c1nn(CC(=O)O)c2cccc(Cl)c12)C(=O)C1CC1` [Example 4, [4-Chloro-3-(2-{[(cyclopropylcarbonyl)(ethyl)amino]methyl}-4-fluorophenyl)-1H-indazol-1-yl]acetic acid] here?
A: 9 nM

Q: How did the IC50 turn out when `CCN(Cc1cc(C(F)(F)F)ccc1-c1nn(CC(=O)O)c2ccc(Cl)cc12)C(=O)C1CC1` [Example 5] was run?
A: 16 nM

Q: Which IC50 does the source give for `CCN(Cc1cc(F)ccc1-c1nn(CC(=O)O)c2ccc(C(F)(F)F)cc12)C(=O)C1CC1` [Example 8, [3-(2-{[(Cyclopropylcarbonyl)(ethyl)amino]methyl}-4-fluorophenyl)-5-(trifluoromethyl)-1H-indazol-1-yl]acetic acid] here?
A: 7 nM

Q: For `CCN(Cc1cc(C(F)(F)F)ccc1-c1nn(C(C)C(=O)O)c2cccc(Cl)c12)C(=O)C1CC1` (stereo not drawn) [Example 9, 2-{4-Chloro-3-[2-{[(cyclopropylcarbonyl)(ethyl)amino]methyl}-4-(trifluoromethyl)phenyl]-1H-indazol-1-yl}propanoic acid], which IC50 is on record?
A: 13 nM

Q: For `CCN(Cc1cc(F)ccc1-c1nn(CC(=O)O)c2ccc(Cl)cc12)C(=O)C1CC1` [Example 11, [5-Chloro-3-(2-{[(cyclopropylcarbonyl)(ethyl)amino]methyl}-4-fluorophenyl)-1H-indazol-1-yl]acetic acid], which IC50 is on record?
A: 6 nM

Q: For `CCN(Cc1cc(C(F)(F)F)ccc1-c1nn(CC(=O)O)c2cccc(F)c12)C(=O)C1CC1` [Example 14, {3-[2-{[(Cyclopropylcarbonyl)(ethyl)amino]methyl}-4-(trifluoromethyl)phenyl]-4-fluoro-1H-indazol-1-yl}acetic acid], which IC50 is on record?
A: 4 nM

Q: Which IC50 does the source give for `CCN(Cc1cc(C(F)(F)F)ccc1-c1nn(CC(=O)O)c2ccc(C)cc12)C(=O)C1CC1` [Example 15, {3-[2-{[(Cyclopropylcarbonyl)(ethyl)amino]methyl}-4-(trifluoromethyl)phenyl]-5-methyl-1H-indazol-1-yl}acetic acid] here?
A: 8 nM

Q: `CCN(Cc1cc(C(F)(F)F)ccc1-c1nn(CC(=O)O)c2cccc(C)c12)C(=O)C1CC1` [Example 16, {3-[2-{[(Cyclopropylcarbonyl)(ethyl)ammo]methyl}-4-(trifluoromethyl)phenyl]-4-methyl-1H-indazol-1-yl}acetic acid] was tested. Which IC50 did it give?
A: 17 nM

Q: With `CCN(Cc1cc(C(F)(F)F)ccc1-c1nn(CC(=O)O)c2ccc(F)c(Cl)c12)C(=O)C1CC1` [Example 17, {4-Chloro-3-[2-{[(cydopropylcarbonyl)(ethyl)amino]methyl}-4-(trifluoromethyl)phenyl]-5-fluoro-1H-indazol-1-yl}acetic acid] as the molecule, how does the IC50 read?
A: 10 nM

Q: Which IC50 does the source give for `CCN(Cc1cc(F)ccc1-c1nn(CC(=O)O)c2ccc(Cl)cc12)C(=O)OC(C)(C)C` [Example 18, [3-(2-{[(tert-Butoxycarbonyl)(ethyl)amino]methyl}-4-fluorophenyl)-5-chloro-1H-indazol-1-yl]acetic acid] here?
A: 13 nM

Q: Which IC50 does the source give for `CCN(Cc1cc(F)ccc1-c1nn(CC(=O)O)c2ccc(Cl)cc12)C(=O)C1CCC1` [Example 19, [5-Chloro-3-(2-{[(cyclobutylcarbonyl)(ethyl)amino]methyl}-4-fluorophenyl)-1H-indazol-1-yl]acetic acid] here?
A: 7 nM

Q: `CCN(Cc1cc(F)ccc1-c1nn(CC(=O)O)c2ccc(Cl)cc12)C(C)=O` [Example 22] was tested. Which IC50 did it give?
A: 10 nM

Q: Which IC50 does the source give for `CCN(Cc1cc(C(F)(F)F)ccc1-c1nn(CC(=O)O)c2cccc(Cl)c12)C(=O)NCc1ccccc1` [Example 23, (3-[2-{[[(Benzylamino)carbonyl](ethyl)amino]methyl}-4-(trifluoromethyl)phenyl]-4-chloro-1H-indazol-1-yl}acetic acid] here?
A: 8 nM

Q: For `CCN(Cc1ccccc1-c1nn(CC(=O)O)c2ccc(Cl)cc12)C(=O)C1CC1` [Example 24], which IC50 is on record?
A: 9 nM

Q: Which IC50 does the source give for `CCN(Cc1cc(C(F)(F)F)ccc1-c1nn(CC(=O)O)c2ccc(Cl)c(F)c12)C(=O)C1CC1` [Example 27] here?
A: 14 nM

Q: With `CCN(Cc1cc(C(F)(F)F)ccc1-n1cc(CC(=O)O)c2ccc(F)cc21)C(=O)C1CC1` [Example 30, {1-[2-[[(Cyclopropylcarbonyl)(ethyl)amino]methyl}-4-(trifluoromethyl)phenyl]-6-fluoro-1H-indol-3-yl}acetic acid] as the molecule, how does the IC50 read?
A: 18 nM

Q: With `CCN(Cc1cc(C(F)(F)F)ccc1-c1cn(CC(=O)O)c2ccccc12)C(=O)C1CC1` [Example 31, (3-[2-[[(Cyclopropylcarbonyl)(ethyl)amino]methyl)-4-(trifluoromethyl)phenyl]-1H-indol-1-yl}acetic acid] as the molecule, how does the IC50 read?
A: 19 nM

Q: `CCN(Cc1cc(C(F)(F)F)ccc1-c1cn(CC(=O)O)c2ccc(F)cc12)C(=O)C1CC1` [Example 33] was tested. Which IC50 did it give?
A: 18 nM

Q: Which IC50 does the source give for `CCN(Cc1cc(F)ccc1-c1cn(CC(=O)O)c2ccccc12)C(=O)C1CC1` [Example 37, [3-(2-[[(Cyclopropylcarbonyl)(ethyl)amino]methyl}-4-fluorophenyl)-1H-indol-1-yl]acetic acid] here?
A: 11 nM

Q: How did the IC50 turn out when `CCN(Cc1cc(F)ccc1-c1cn(CC(=O)O)c2ccc(C(F)(F)F)cc12)C(=O)C1CC1` [Example 39, [3-(2-[[(Cyclopropylcarbonyl)(ethyl)amino]methyl}-4-fluorophenyl)-5-(trifluoromethyl)-1H-indol-1-yl]acetic acid] was run?
A: 13 nM

Q: How did the IC50 turn out when `CCN(Cc1cc(C(F)(F)F)ccc1-c1cn(CC(=O)O)c2cccc(F)c12)C(=O)C1CC1` [Example 40, (3-[2-[[(Cyclopropylcarbonyl)(ethyl)amino]methyl}-4-(trifluoromethyl)phenyl]-4-fluoro-1H-indol-1-yl}acetic acid] was run?
A: 3 nM

Q: How did the IC50 turn out when `CCN(Cc1cc(F)ccc1-c1cn(CC(=O)O)c2ccc(F)cc12)C(=O)C1CC1` [Example 42, [3-(2-([(Cyclopropylcarbonyl)(ethyl)amino]methyl}-4-fluorophenyl)-5-fluoro-1H-indol-1-yl]acetic acid] was run?
A: 6 nM

Q: With `CCN(Cc1cc(C(F)(F)F)ccc1-c1cn(CC(=O)O)c2ccc(F)cc12)C(=O)NCc1ccccc1` [Example 43, {3-[2-{[[(Benzylamino)carbonyl](ethyl)aaino]methyl]-4-(trifluoromethyl)phenyl]-5-fluoro-1H-indol-1-yl}acetic acid] as the molecule, how does the IC50 read?
A: 16 nM

Q: For `Cc1nnc(C2CC2)n1Cc1cc(C(F)(F)F)ccc1-c1cn(CC(=O)O)c2ccc(F)cc12` [Example 46, (3-[2-[(3-Cyclopropyl-5-methyl-4H-1,2,4-triazol-4-yl)methyl]-4-(trifluoromethyl)phenyl]-5-fluoro-1H-indol-1-yl}acetic acid], which IC50 is on record?
A: 9 nM

Q: `CCN(Cc1cc(C(F)(F)F)ccc1-c1cn(CC(=O)O)c2ccc(F)c(F)c12)C(=O)C1CC1` [Example 50, {3-[2-{[(Cyclopropylcarbonyl)(ethyl)amino]methyl)-4-(trifluoromethyl)phenyl]-4,5-difluoro-1H-indol-1-yl}acetic acid] was tested. Which IC50 did it give?
A: 16 nM

Q: How did the IC50 turn out when `CCN(Cc1cc(F)ccc1-c1cn(CC(=O)O)c2cccc(F)c12)C(=O)C1CC1` [Example 52, [3-(2-{[(Cyclopropylcarbonyl)(ethyl)amino]methyl}-4-fluorophenyl)-4-fluoro-1H-indol-1-yl]acetic acid] was run?
A: 7 nM

Q: How did the IC50 turn out when `CCN(Cc1ccccc1-c1cn(CC(=O)O)c2ccc(F)cc12)C(=O)C1CC1` [Example 54, [3-(2-([(Cyclopropylcarbonyl)(ethyl)amino]methyl)phenyl)-5-fluoro-1H-indol-1-yl]acetic acid] was run?
A: 4 nM

Reference: patent EP2548863A1, “New CRTh2 antagonists” (Almirall, S.A., priority 2011, dated 2013)
